In patent publication US10030020B2, “Spirocycle compounds and methods of making and using same” (Abide Therapeutics, Inc., priority 2016, dated 2018):

Assays:
[1] = biological target: T1, ABHD6 (Mus musculus (Mouse), UniProt Q8R2Y0); test: In vitro competitive activity-based protein profiling (mouse brain membrane fraction or cell lysates), ABHD6 band; format: biochemical; details: mouse proteome; for inhibition at 1 µM: read-out: ABHD6 % Inh 1 μM (mouse); for IC50: competitive ABPP
Summary of the method: (§1)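 Residual hydrolase activity was measured as gel band fluorescence after FP-Rh labelling (30 min, 37° C) of proteomes pretreated 30 min at 37° C with inhibitor.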

[2] = biological target: T2, FAAH (Mus musculus (Mouse), UniProt O08914); test: In vitro competitive activity-based protein profiling (mouse brain membrane fraction or cell lysates), FAAH band; format: biochemical; details: mouse proteome; for inhibition at 1 µM: read-out: FAAH % Inh 1 μM (mouse); for IC50: competitive ABPP
T2 sequence (O08914 whole entry): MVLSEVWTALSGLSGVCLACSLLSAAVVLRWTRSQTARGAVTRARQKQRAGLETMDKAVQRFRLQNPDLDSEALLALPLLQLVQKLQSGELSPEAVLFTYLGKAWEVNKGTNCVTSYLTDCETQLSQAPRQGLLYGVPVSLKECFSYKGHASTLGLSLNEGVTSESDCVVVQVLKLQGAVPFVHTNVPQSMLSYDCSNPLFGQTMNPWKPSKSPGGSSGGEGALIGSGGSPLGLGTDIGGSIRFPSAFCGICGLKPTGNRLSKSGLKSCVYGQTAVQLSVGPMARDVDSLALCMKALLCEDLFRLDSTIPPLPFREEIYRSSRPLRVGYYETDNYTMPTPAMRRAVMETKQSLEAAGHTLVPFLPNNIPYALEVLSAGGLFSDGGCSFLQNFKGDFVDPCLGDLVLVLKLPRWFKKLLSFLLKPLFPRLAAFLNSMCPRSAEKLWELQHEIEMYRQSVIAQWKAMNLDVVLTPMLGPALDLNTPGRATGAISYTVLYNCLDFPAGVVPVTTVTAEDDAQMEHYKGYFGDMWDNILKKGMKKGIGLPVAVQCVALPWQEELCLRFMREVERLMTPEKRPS
Summary of the method: as §1

[3] = biological target: T3, MAGL (Mus musculus (Mouse), UniProt O35678); test: Mouse brain proteomes from inhibitor treated mice (oral gavage, sacrificed 4 h after administration, ABPP analysis); format: in vivo, mouse (C57Bl/6J); details: 5 mg/kg oral gavage
T3 sequence (O35678 whole entry): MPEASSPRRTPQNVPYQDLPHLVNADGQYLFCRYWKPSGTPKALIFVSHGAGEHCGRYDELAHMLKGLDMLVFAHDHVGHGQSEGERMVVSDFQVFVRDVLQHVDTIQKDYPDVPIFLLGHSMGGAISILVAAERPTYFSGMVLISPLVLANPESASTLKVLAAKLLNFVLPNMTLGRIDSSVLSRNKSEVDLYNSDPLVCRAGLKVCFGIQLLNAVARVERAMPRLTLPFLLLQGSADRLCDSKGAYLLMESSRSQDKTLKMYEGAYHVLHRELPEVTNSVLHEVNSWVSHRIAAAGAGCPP
Summary of the method: (§2)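 Mice (wild-type C57Bl/6J) receive inhibitor by oral gavage, e.g. in PEG400/Ethanol/PBS (7/2/1). Each animal is killed 4 h later. Brain proteomes are prepared and analyzed by ABPP, giving % inhibition at 5 mg/kg.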

[4] = biological target: T3, MAGL; test: In vitro competitive activity-based protein profiling (mouse brain membrane fraction or cell lysates), MAGL band; format: biochemical; details: mouse proteome; for inhibition at 1 µM: read-out: MAGL % Inh 1 μM (mouse); for IC50: competitive ABPP
Description: In Vitro Competitive Activity-Based Protein Profiling.
Proteomes (mouse brain membrane fraction or cell lysates) (50 μL, 1.0 mg/mL total protein concentration) were preincubated with varying concentrations of inhibitors at 37° C. After 30 min, FP—Rh (1.0 μL, 50 μM in DMSO) was added and the mixture was incubated for another 30 min at 37° C. Reactions were quenched with SDS loading buffer (50 μL-4×) and run on SDS-PAGE.

[5] = biological target: T1, ABHD6; test: Mouse brain proteomes from inhibitor treated mice (oral gavage, sacrificed 4 h after administration, ABPP analysis), ABHD6; format: in vivo, mouse (C57Bl/6J); details: 5 mg/kg oral gavage
Summary of the method: as §2

[6] = biological target: T2, FAAH; test: Mouse brain proteomes from inhibitor treated mice (oral gavage, sacrificed 4 h after administration, ABPP analysis), FAAH; format: in vivo, mouse (C57Bl/6J); details: 5 mg/kg oral gavage
Summary of the method: as §2

T1 sequence (Q8R2Y0 whole entry): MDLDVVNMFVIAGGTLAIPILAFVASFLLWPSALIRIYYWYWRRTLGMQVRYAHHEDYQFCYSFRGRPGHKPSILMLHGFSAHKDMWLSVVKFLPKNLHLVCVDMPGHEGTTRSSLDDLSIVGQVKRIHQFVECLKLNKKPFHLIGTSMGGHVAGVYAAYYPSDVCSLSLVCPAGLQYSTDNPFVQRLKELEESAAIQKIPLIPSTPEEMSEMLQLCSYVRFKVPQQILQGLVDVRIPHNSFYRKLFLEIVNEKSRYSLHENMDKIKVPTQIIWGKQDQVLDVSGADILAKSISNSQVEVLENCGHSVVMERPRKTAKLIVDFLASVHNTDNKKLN

inhibition at 1 µM [1] [%] | IC50 [1] [nM] | inhibition at 1 µM [2] [%] | IC50 [2] [nM] | MAGL % Inh 5 mg/kg (mouse) [3] | inhibition at 1 µM [4] [%] | IC50 [4] [nM] | ABHD6 % Inh 5 mg/kg (mouse) [5] | FAAH % Inh 5 mg/kg (mouse) [6] | Compound
< 25 | > 1000 | < 25 | > 1000 | ### (### is ≥75%) | > 75 | < 100 | # (# is <25%) | # (# is <25%) | O=C(OC(C(F)(F)F)C(F)(F)F)N1CCC2(CCCN2Cc2cccc(N3CCCC3)c2Cl)CC1 [Example 81, 1,1,1,3,3,3-Hexafluoropropan-2-yl 1-(2-chloro-3-(pyrrolidin-1-yl)benzyl)-1,8-diazaspiro[4.5]decane-8-carboxylate]
< 25 | > 1000 | < 25 | > 1000 | ### (### is ≥75%) | > 75 | < 100 | # (# is <25%) | # (# is <25%) | O=C(OC(C(F)(F)F)C(F)(F)F)N1CCC2(CCCN2Cc2ccc(Cl)cc2N2CCC(F)(F)CC2)CC1 [Example 101, 1,1,1,3,3,3-Hexafluoropropan-2-yl 1-(4-chloro-2-(4,4-difluoropiperidin-1-yl)benzyl)-1,8-diazaspiro[4.5]decane-8-carboxylate]
< 25 | > 1000 | < 25 | > 1000 | ### (### is ≥75%) | > 75 | < 100 | # (# is <25%) | # (# is <25%) | O=C(OC(C(F)(F)F)C(F)(F)F)N1CCC2(CCCN2Cc2cc(Cl)cc(N3CCCC3)c2)CC1 [Example 34, 1,1,1,3,3,3-Hexafluoropropan-2-yl 1-(3-chloro-5-(pyrrolidin-1-yl)benzyl)-1,8-diazaspiro[4.5]decane-8-carboxylate]
< 25 | > 1000 | < 25 | > 1000 | ### (### is ≥75%) | > 75 | < 100 | # (# is <25%) | # (# is <25%) | Cc1c(CN2CCCC23CCN(C(=O)OC(C(F)(F)F)C(F)(F)F)CC3)cccc1N1CCCC1 [Example 85, 1,1,1,3,3,3-Hexafluoropropan-2-yl 1-(2-methyl-3-(pyrrolidin-1-yl)benzyl)-1,8-diazaspiro[4.5]decane-8-carboxylate]
< 25 | > 1000 | < 25 | > 1000 | ### (### is ≥75%) | > 75 | < 100 | # (# is <25%) | # (# is <25%) | Cc1cc(CN2CCCC23CCN(C(=O)OC(C(F)(F)F)C(F)(F)F)CC3)ccc1Cl [Example 124, 1,1,1,3,3,3-Hexafluoropropan-2-yl 1-(4-chloro-3-methylbenzyl)-1,8-diazaspiro[4.5]decane-8-carboxylate]
≥ 75 | 100 to 1000 | < 25 | > 1000 | ### (### is ≥75%) | > 75 | < 100 | ### (### is ≥75%) | # (# is <25%) | CCc1cc(CN2CCC3(CCN(C(=O)OC(C(F)(F)F)C(F)(F)F)CC3)C2)ccc1F [Example 152, 1,1,1,3,3,3-Hexafluoropropan-2-yl 2-(3-ethyl-4-fluorobenzyl)-2,8-diazaspiro[4.5]decane-8-carboxylate]
25 to 75 | > 1000 | < 25 | > 1000 | ### (### is ≥75%) | > 75 | < 100 | # (# is <25%) | # (# is <25%) | O=C(OC(C(F)(F)F)C(F)(F)F)N1CCC2(CCCN2Cc2ccc(N3CCOCC3)c(C(F)(F)F)c2)CC1 [Example 129, 1,1,1,3,3,3-Hexafluoropropan-2-yl 1-(4-morpholino-3-(trifluoromethyl)benzyl)-1,8-diazaspiro[4.5]decane-8-carboxylate]

Compound | inhibition at 1 µM [1] [%] | IC50 [1] [nM] | inhibition at 1 µM [2] [%] | IC50 [2] [nM] | MAGL % Inh 5 mg/kg (mouse) [3] | inhibition at 1 µM [4] [%] | IC50 [4] [nM] | ABHD6 % Inh 5 mg/kg (mouse) [5] | FAAH % Inh 5 mg/kg (mouse) [6]
O=C(OC(C(F)(F)F)C(F)(F)F)N1CCC2(CCCN2Cc2ccc(C(F)(F)F)cc2Oc2cccnc2)CC1 [Example 173, 1,1,1,3,3,3-Hexafluoropropan-2-yl 1-(2-(pyridin-3-yloxy)-4-(trifluoromethyl)benzyl)-1,8-diazaspiro[4.5]decane-8-carboxylate] | 25 to 75 | > 1000 | < 25 | > 1000 | ## (## is equal to or greater than 25% but less than 75%) | > 75 | < 100 | # (# is <25%) | # (# is <25%)
O=C(OC(C(F)(F)F)C(F)(F)F)N1CCC2(CCCN2Cc2ccc(Cl)cc2N2CCC2)CC1 [Example 107, 1,1,1,3,3,3-Hexafluoropropan-2-yl 1-(2-(azetidin-1-yl)-4-chlorobenzyl)-1,8-diazaspiro[4.5]decane-8-carboxylate] | < 25 | > 1000 | < 25 | > 1000 | ### (### is ≥75%) | > 75 | < 100 | # (# is <25%) | ## (## is equal to or greater than 25% but less than 75%)
CC1(C)CC2(CCN(C(=O)OC(C(F)(F)F)C(F)(F)F)CC2)CN1Cc1ccc(Cl)cc1 [Example 48, 1,1,1,3,3,3-Hexafluoropropan-2-yl 2-(4-chlorobenzyl)-3,3-dimethyl-2,8-diazaspiro[4.5]decane-8-carboxylate] | ≥ 75 | 100 to 1000 | < 25 | > 1000 | ### (### is ≥75%) | > 75 | < 100 | ## (## is equal to or greater than 25% but less than 75%) | # (# is <25%)
CC1(C)CC2(CCN(C(=O)OC(C(F)(F)F)C(F)(F)F)CC2)CN1Cc1ccc(C(F)(F)F)cc1N1CCOCC1 [Example 51, 1,1,1,3,3,3-Hexafluoropropan-2-yl 3,3-dimethyl-2-(2-morpholino-4-(trifluoromethyl)benzyl)-2,8-diazaspiro[4.5]decane-8-carboxylate] | < 25 | > 1000 | < 25 | > 1000 | ## (## is equal to or greater than 25% but less than 75%) | > 75 | < 100 | # (# is <25%) | # (# is <25%)
O=C(OC(C(F)(F)F)C(F)(F)F)N1CCC2(CCCN2Cc2ccc(C(F)(F)F)cc2N2CCCC2)CC1 [Example 66, 1,1,1,3,3,3-Hexafluoropropan-2-yl 1-(2-(pyrrolidin-1-yl)-4-(trifluoromethyl)benzyl)-1,8-diazaspiro[4.5]decane-8-carboxylate] | < 25 | > 1000 | < 25 | > 1000 | ## (## is equal to or greater than 25% but less than 75%) | > 75 | < 100 | # (# is <25%) | # (# is <25%)
O=C(OC(C(F)(F)F)C(F)(F)F)N1CCC2(CCN(Cc3cccc(Cl)c3N3CCC(F)(F)CC3)C2)CC1 [Example 64, 1,1,1,3,3,3-Hexafluoropropan-2-yl 2-(3-chloro-2-(4,4-difluoropiperidin-1-yl)benzyl)-2,8-diazaspiro[4.5]decane-8-carboxylate] | < 25 | > 1000 | < 25 | > 1000 | ## (## is equal to or greater than 25% but less than 75%) | > 75 | < 100 | # (# is <25%) | # (# is <25%)
O=C(OC(C(F)(F)F)C(F)(F)F)N1CCC2(CCCN2Cc2ccc(F)c(OCCF)c2)CC1 [Example 29, 1,1,1,3,3,3-Hexafluoropropan-2-yl 1-(4-fluoro-3-(2-fluoroethoxy)benzyl)-1,8-diazaspiro[4.5]decane-8-carboxylate] | ≥ 75 | > 1000 | < 25 | > 1000 | ### (### is ≥75%) | > 75 | < 100 | ### (### is ≥75%) | ## (## is equal to or greater than 25% but less than 75%)
